Assay results from paper PMC9555310, “Novel inhibitors and activity-based probes targeting serine proteases” (Frontiers in Chemistry, 2022).
Values belong to the compound of their own block, whether it stands above or below them.

Legend:
neutrophil elastase (NE) = target: T1, neutrophil elastase (NE) (Homo sapiens, UniProt P08246); test: Off-target study, residual activity after 2 min pre-incubation: NE; assay type: biochemical; details: 2 min incubation, PBS pH 7.4, 37°C; for off-target inhibition of neutrophil elastase: residual activity vs DMF control, NAP830 at concentrations up to 50 μM
T1 construct: purchased Calbiochem
T1 sequence (P08246 30-267): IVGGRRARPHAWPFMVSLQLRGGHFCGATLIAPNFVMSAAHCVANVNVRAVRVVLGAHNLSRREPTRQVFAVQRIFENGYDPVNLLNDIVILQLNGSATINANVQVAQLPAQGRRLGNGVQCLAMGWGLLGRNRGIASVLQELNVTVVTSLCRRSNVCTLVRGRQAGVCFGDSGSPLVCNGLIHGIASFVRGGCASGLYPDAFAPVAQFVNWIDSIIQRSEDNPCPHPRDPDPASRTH
Description: (§1) FIGURE 5 Results of “off-target“ studies. NAP849 (A), NAP800 (B) and NAP830 (C) were tested against trypsin, chymotrypsin, and NE. Samples (approx. 0.01 μg) of each protease were incubated with the indicated concentrations of test compound for 2 min, in PBS, pH 7.4, at 37°C. (D) NAP858, NAP962 and NAP849 were tested against cathepsin B at the indicated concentrations in 0.1 M MES, pH 6.1, containing 1 mM EDTA, for 2 min, at 37°C. Aliquots (approx. 10 μL) of each incubation sample were then added to a fresh sample (990 μL) of PBS for the serine proteases and MES for cathepsin B, containing the appropriate substrate for each protease, to measure their residual activity. Controls incubations were performed in the absence of test compound, but in the presence of an appropriate volume of DMF vehicle used to prepare stock solutions of each inhibitor under study.
(§2) Two elements were investigated regarding possible “off-target” effects–determining the extent of cross-reactivity of each of the new putative ABPs between the various serine protease family members and assessing their collateral inhibitory action against another mechanistic class–the cysteine proteases, using cathepsin B (CTSB) as an exemplar.
(§3) For assays requiring a pre-incubation step enzyme and inhibitor in assay buffer were incubated together, at 37 °C, for 2 min, with gentle agitation. The reaction mixture was then aliquoted (50 μL) in duplicate on a black 96-well microtitre plate followed by addition of substrate to make a final concentration of 50 μM in a total volume of 100 μL. The fluorescence production was then measured as described for the previous procedure.
(§4) Figure ST1. Results of “off-target” studies. NAP559 and NAP533 were tested against chymotrypsin, and NE. Samples (approx. 0.01 mg) of each protease were incubated with the indicated concentrations of test compound for 2 min, in PBS, pH 7.4, at 37 °C. Aliquots (approx. 10 µL) of each incubation sample were then added to a fresh sample (990 µL) of PBS containing the appropriate substrate for each protease, to measure their residual activity. Controls incubations were performed in the absence of test compound, but in the presence of an appropriate volume of DMF vehicle used to prepare stock solutions of each inhibitor under study.

chymotrypsin = target: T2, chymotrypsin (Bos taurus, UniProt P00766); test: Off-target study, residual activity after 2 min pre-incubation: chymotrypsin; assay type: biochemical, bovine; details: 2 min incubation, PBS pH 7.4, 37°C; for off-target inhibition of chymotrypsin: residual activity vs DMF control, NAP830 at concentrations up to 50 μM
T2 construct: purchased Sigma-Aldrich (supplement); Calbiochem; host or cells: bovine pancreas
Description: as §1, §2, §3, §4

cathepsin B (CTSB) = target: T3, cathepsin B (CTSB) (Homo sapiens, UniProt P07858); test: Off-target study, residual activity after 2 min pre-incubation: cathepsin B; assay type: biochemical; details: 25 and 50 μM, 0.1 M MES pH 6.1, 1 mM EDTA, 37°C
T3 construct: purchased R and D Systems
Description: as §1, §2, §3
Assays with Cathepsin B required a pre-activation step of the protease prior to use in the fluorogenic enzyme assays. Cathepsin B was diluted to 10 μg/ml in activation buffer (0.1 M MES, pH 6.1, containing 1 mM EDTA and 2 mM DTT) and left to stand at room temperature for 15 minutes. Activated Cathepsin B was then diluted (1:50 to give 10 ng/50 μl) with assay buffer (activation buffer minus the DTT) prior to use as described previously.

trypsin = target: T4, trypsin (Sus scrofa, UniProt P00761); test: Off-target study, residual activity after 2 min pre-incubation: trypsin; assay type: biochemical, porcine; details: 2 min incubation, PBS pH 7.4, 37°C, residual activity vs DMF control
T4 construct: purchased Sigma-Aldrich; host or cells: porcine pancreas
T4 sequence (P00761 9-231): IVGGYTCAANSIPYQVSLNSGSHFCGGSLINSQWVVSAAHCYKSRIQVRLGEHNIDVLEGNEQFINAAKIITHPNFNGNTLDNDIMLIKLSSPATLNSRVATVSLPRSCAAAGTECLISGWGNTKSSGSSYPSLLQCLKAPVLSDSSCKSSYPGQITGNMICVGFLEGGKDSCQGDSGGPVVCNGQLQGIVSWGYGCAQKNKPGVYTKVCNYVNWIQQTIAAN
Description: FIGURE 5 Results of “off-target“ studies. NAP849 (A), NAP800 (B) and NAP830 (C) were tested against trypsin, chymotrypsin, and NE. Samples (approx. 0.01 μg) of each protease were incubated with the indicated concentrations of test compound for 2 min, in PBS, pH 7.4, at 37°C. (D) NAP858, NAP962 and NAP849 were tested against cathepsin B at the indicated concentrations in 0.1 M MES, pH 6.1, containing 1 mM EDTA, for 2 min, at 37°C. Aliquots (approx. 10 μL) of each incubation sample were then added to a fresh sample (990 μL) of PBS for the serine proteases and MES for cathepsin B, containing the appropriate substrate for each protease, to measure their residual activity. Controls incubations were performed in the absence of test compound, but in the presence of an appropriate volume of DMF vehicle used to prepare stock solutions of each inhibitor under study. […]
For assays requiring a pre-incubation step enzyme and inhibitor in assay buffer were incubated together, at 37 °C, for 2 min, with gentle agitation. […] The fluorescence production was then measured as described for the previous procedure.

Structure (SMILES): CC(C)N(CC(=O)NCCCOCCOCCOCCCNC(=O)CCCCC1SCC2NC(=O)NC21)C(=O)CN(Cc1ccccc1)C(=O)CN(CCCCN)C(=O)ON1C(=O)CCC1=O (stereo not shown) [NAP962, Succinimidoyl-CO-NLys-NPhe-NVal-PEG-Biotin]
inhibitory activity against CTSB (cathepsin B (CTSB)): none of the three carbamates tested exhibited any inhibitory activity against CTSB

Structure (SMILES): N=C(N)NCCCN(CC(=O)N1CCC[C@H]1C(=O)N(CC(N)=O)Cc1ccccc1)C(=O)ON1C(=O)CCC1=O [NAP559, Succinimidoyl-CO-NArg-D-Pro-NPhe-NH2]
inhibition of NE (neutrophil elastase (NE); highest concentration (50 μM)): < 5 % of control
inhibition of chymotrypsin (chymotrypsin; highest concentration (50 μM)): < 5 % of control

Further lines, with some results ahead:

off-target inhibition of neutrophil elastase (neutrophil elastase (NE)): no “off-target” effects
off-target inhibition of chymotrypsin (chymotrypsin): no “off-target” effects
Structure (SMILES): NCCCCN(CC(=O)NCC(=O)NCC(=O)NCCCOCCOCCOCCCNC(=O)CCCCC1SCC2NC(=O)NC21)C(=O)ON1C(=O)CCC1=O (stereo not drawn) [NAP830, Succinimidoyl-CO-NLys-Gly-Gly-PEG-Biotin]
inhibitory activity against CTSB (cathepsin B (CTSB)): none of the three carbamates tested exhibited any inhibitory activity against CTSB

off-target inhibition of neutrophil elastase (neutrophil elastase (NE)): complete absence of inhibition
off-target inhibition of trypsin (trypsin): complete absence of inhibition
Structure (SMILES): O=C(CCCCC1SCC2NC(=O)NC21)NCCCOCCOCCOCCCNC(=O)CNC(=O)CNC(=O)CN(Cc1ccccc1)C(=O)ON1C(=O)CCC1=O (stereo not drawn) [NAP849, Succinimidoyl-CO-NPhe-Gly-Gly-PEG-Biotin]

off-target inhibition of trypsin (trypsin): no “off-target” or collateral inhibition
off-target inhibition of chymotrypsin (chymotrypsin): no “off-target” or collateral inhibition
Structure (SMILES): CC(C)N(CC(=O)NCC(=O)NCC(=O)NCCCOCCOCCOCCCNC(=O)CCCCC1SCC2NC(=O)NC21)C(=O)ON1C(=O)CCC1=O (stereo not drawn) [NAP800, Succinimidoyl-CO-NVal-Gly-Gly-PEG-Biotin]
